Reference: patent US11958847B1, “Pyrazolidinedione derivatives and their use as PPAR-gamma inhibitors” (KING FAISAL UNIVERSITY, priority 2023, dated 2024)

Tested on: diabetic rats
Assay: Anti-hyperglycemic activity evaluation, Streptozotocin (STZ) model
Assay type: in vivo, albino rats
Settings: for inhibition in vivo at 50 mg/kg: compound 50 mg/kg oral; for Blood glucose level 5-day / Blood glucose level 10-day: mean ± SEM, n=6
Procedure: Diabetes was experimentally generated in albino rats by intraperitoneal injection of a solution of STZ (60 mg/kg) in sterile normal saline. […] Rats were partitioned into 8 groups consisting of 6 rats in each group (n=6). The control group consisted of the first group of diabetic animals serving as vehicle control and treated orally with carboxymethylcellulose (CMC) (0.5%, 1 ml) alone; Group 2 of diabetic rats was treated with rosiglitazone 100 mg/kg. […] Blood collections were operated by tail vein sampling. The measurements of blood glucose were performed at 0, 5 and 10 days interval. Bayer's Contour TS system was used in order to monitor blood glucose level. In overnight-fasted rats, fasting blood glucose level was measured in all the groups as a base line at 0 time. All blood glucose data were expressed as mean±SEM. The analysis of the data including the variance analysis (ANOVA) and all mean comparisons were accomplished by Tukey-Kramer method. Results are regarded as significant when P<0.01. The anti-hyperglycemic activity (AA) was presented as % AA and computed as follows: % AA=100×[blood glucose level (0-day)−blood glucose level (10-day)]/[blood glucose level (0-day)].

[1] = Rattus norvegicus, 240 h, % AA=100×[glucose (0-day)−glucose (10-day)]/[glucose (0-day)]
[2] = compound 50 mg/kg oral for 7 continuous days

SMILES	inhibition in vivo at 50 mg/kg [1]	Blood glucose level 5-day [2]	Blood glucose level 10-day [2]	inhibition in vivo at 100 mg/kg (Rattus norvegicus, po, 240 h, rosiglitazone 100 mg/kg, % AA=100×[glucose (0-day)−glucose (10-day)]/[glucose (0-day)])	Blood glucose level 5-day (rosiglitazone 100 mg/kg)	Blood glucose level 10-day (rosiglitazone 100 mg/kg)
Cc1c(Cl)ccc2nc(NC(=O)CCOc3ccc(C=C4C(=O)NNC4=O)cc3)sc12 [Compound 13, N-(6-chloro-7-methylbenzo[d]thiazol-2-yl)-3-(4-((3,5-dioxopyrazolidin-4-ylidene)methyl)phenoxy)propanamide]	65.5%	168.4 ± 4.3 mg/dL	119.1 ± 4.3 mg/dl	–	–	–
CCc1cc2nc(NC(=O)CCOc3ccc(C=C4C(=O)NNC4=O)cc3)sc2cc1Cl [Compound 12, N-(6-chloro-5-ethylbenzo[d]thiazol-2-yl)-3-(4-((3,5-dioxopyrazolidin-4-ylidene)methyl)phenoxy)propanamide]	64.2%	171.6 ± 5.1 mg/dL	121.9 ± 3.6 mg/dl	–	–	–
O=C(CCOc1ccc(C=C2C(=O)NNC2=O)cc1)Nc1nc2c(Cl)cc(F)cc2s1 [Compound 14, N-(4-chloro-6-fluorobenzo[d]thiazol-2-yl)-3-(4-((3,5-dioxopyrazolidin-4-ylidene)methyl)phenoxy)propanamide]	68.9%	162.5 ± 5.6 mg/dL	109.6 ± 5.4 mg/dl	–	–	–
Cc1cc2nc(NC(=O)COc3ccc(C=C4C(=O)NNC4=O)cc3)sc2cc1Cl [Compound 4, N-(6-chloro-5-methylbenzo[d]thiazol-2-yl)-2-(4-((3,5-dioxopyrazolidin-4-ylidene)methyl)phenoxy)acetamide]	66.4%	160.2 ± 4.1 mg/dL	113.4 ± 2.6 mg/dl	–	–	–
O=C(CCOc1ccc(C=C2C(=O)NNC2=O)cc1)Nc1nc2ccc(Cl)cc2s1 [Compound 8, N-(6-chlorobenzo[d]thiazol-2-yl)-3-(4-((3,5-dioxopyrazolidin-4-ylidene)methyl)phenoxy)propanamide]	68.7%	166.5 ± 3.7 mg/dL	106.1 ± 5.1 mg/dl	–	–	–
O=C(CCOc1ccc(C=C2C(=O)NNC2=O)cc1)Nc1nc2ccc(OC(F)(F)F)cc2s1 [Compound 10, 3-(4-((3,5-dioxopyrazolidin-4-ylidene)methyl)phenoxy)-N-(6-(trifluoromethoxy)benzo[d]thiazol-2-yl)propanamide]	69.8%	153.2 ± 4.2 mg/dL	105.2 ± 4.7 mg/dl	–	–	–
Cc1c(Cl)ccc2nc(NC(=O)COc3ccc(C=C4C(=O)NNC4=O)cc3)sc12 [Compound 6, N-(6-chloro-7-methylbenzo[d]thiazol-2-yl)-2-(4-((3,5-dioxopyrazolidin-4-ylidene)methyl)phenoxy)acetamide]	58.6%	161.3 ± 4.5 mg/dL	143.9 ± 5.3 mg/dl	–	–	–
Cc1cc2nc(NC(=O)CCOc3ccc(C=C4C(=O)NNC4=O)cc3)sc2cc1Cl [Compound 11, N-(6-chloro-5-methylbenzo[d]thiazol-2-yl)-3-(4-((3,5-dioxopyrazolidin-4-ylidene)methyl)phenoxy)propanamide]	68.4%	168.7 ± 3.4 mg/dL	107.0 ± 2.4 mg/dl	–	–	–
O=C(COc1ccc(C=C2C(=O)NNC2=O)cc1)Nc1nc2c(Cl)cc(F)cc2s1 [Compound 7, N-(4-chloro-6-fluorobenzo[d]thiazol-2-yl)-2-(4-((3,5-dioxopyrazolidin-4-ylidene)methyl)phenoxy)acetamide]	66.3%	174.1 ± 4.2 mg/dL	115.2 ± 4.2 mg/dl	–	–	–
O=C(COc1ccc(C=C2C(=O)NNC2=O)cc1)Nc1nc2ccc(C(F)(F)F)cc2s1 [Compound 2, 2-(4-((3,5-dioxopyrazolidin-4-ylidene)methyl)phenoxy)-N-(6-(trifluoromethyl)benzo[d]thiazol-2-yl)acetamide]	64.3%	163.7 ± 2.8 mg/dL	123.4 ± 3.5 mg/dl	–	–	–
O=C(COc1ccc(C=C2C(=O)NNC2=O)cc1)Nc1nc2ccc(OC(F)(F)F)cc2s1 [Compound 3, 2-(4-((3,5-dioxopyrazolidin-4-ylidene)methyl)phenoxy)-N-(6-(trifluoromethoxy)benzo[d]thiazol-2-yl)acetamide]	59.5%	172.4 ± 3.4 mg/dL	141.6 ± 2.8 mg/dl	–	–	–
O=C(COc1ccc(C=C2C(=O)NNC2=O)cc1)Nc1nc2ccc(Cl)cc2s1 [Compound 1, N-(6-chlorobenzo[d]thiazol-2-yl)-2-(4-((3,5-dioxopyrazolidin-4-ylidene)methyl)phenoxy)acetamide]	63.5%	157.5 ± 3.7 mg/dL	123.9 ± 4.2 mg/dl	–	–	–
CCc1cc2nc(NC(=O)COc3ccc(C=C4C(=O)NNC4=O)cc3)sc2cc1Cl [Compound 5, N-(6-chloro-5-ethylbenzo[d]thiazol-2-yl)-2-(4-((3,5-dioxopyrazolidin-4-ylidene)methyl)phenoxy)acetamide]	62.8%	155.3 ± 3.9 mg/dL	127.1 ± 3.1 mg/dl	–	–	–
CN(CCOc1ccc(CC2SC(=O)NC2=O)cc1)c1ccccn1 (stereo not drawn) [Rosiglitazone, reference compound]	–	–	–	62%	162.1 ± 3.8 mg/dL	129.7 ± 3.7 mg/dl
O=C(CCOc1ccc(C=C2C(=O)NNC2=O)cc1)Nc1nc2ccc(C(F)(F)F)cc2s1 [Compound 9, 3-(4-((3,5-dioxopyrazolidin-4-ylidene)methyl)phenoxy)-N-(6-(trifluoromethyl)benzo[d]thiazol-2-yl)propanamide]	70.1%	159.6 ± 4.6 mg/dL	105.4 ± 3.2 mg/dl	–	–	–
